System: FIPV
Assay type: cell-based, feline infectious peritonitis virus
Details: read-out: EC50, FIPV

Compound	EC50 [µM]
[Et2NH2]7[PTi2W10O40] [PM-518]	> 32.9
[NH4]12H(BiW9O33)3Bi6(OH)3(H2O)3V4H10]25H2O [PM-1210]	0.74 ± 0.4
[Pri2NH2]5[PTiW11O40] [PM-520]	0.76 ± 0.5

System: PfluV 2
Details: cited from earlier work

Compound	antiviral activity against PfluV 2
K5[SiVW11O40] [PM-43]	did not have antiviral activities

Same assay, conditions: read-out: EC50, PfluV 2; MTT method; cited from earlier work

Compound	EC50 [µM]
NC(=O)c1ncn([C@@H]2O[C@H](CO)[C@@H](O)[C@H]2O)n1 [Ribavirin, reference compound]	14 ± 4.8
K5[SiVW11O40] [PM-43]	> 100
K7[BVW11O40] [PM-47]	67.1
K11H[(VO)3(SbW9O33)2]27H2O [PM-1002]	0.75 ± 0.05
[Et2NH2]7[PTi2W10O40] [PM-518]	53 ± 39
[Pri2NH2]5[PTiW11O40] [PM-520]	23 ± 2.4

System: syncytium formation between MOLT-4 cells (uninfected cells) and MOLT-4/IIIb cells (infected cells)
Details: MOLT-4 and MOLT-4/IIIb cells; cited from earlier work

Compound	inhibition of syncytium formation
K11H[(VO)3(SbW9O33)2]27H2O [PM-1002]	inhibited syncytium formation

System: RSV-B (SM-61-48)
Details: read-out: EC50, RSV-B (SM-61-48); MTT method; data from one experiment; cited from earlier work

Compound	EC50 [µM]
NC(=O)c1ncn([C@@H]2O[C@H](CO)[C@@H](O)[C@H]2O)n1 [Ribavirin, reference compound]	1.6
K12Nb6P2W12O62 [HS-158]	2.7
[(Me3NH)8Si2W18Nb6O77]nH2O [HS-106]	4.5
[Na16Fe4(H2O)2(P2W15O56)2]nH2O [HS-054]	7.8

System: HIV
Details: read-out: EC50, anti-HIV, MAGI test; HeLa CD4/LTR-β-Gal cells; cited from earlier work

Compound	EC50 [µM]
K11H[(VO)3(SbW9O33)2]27H2O [PM-1002]	0.018

System: RSV
Details: read-out: EC50, RSV; MTT method; cited from earlier work

Compound	EC50 [µM]
NC(=O)c1ncn([C@@H]2O[C@H](CO)[C@@H](O)[C@H]2O)n1 [Ribavirin, reference compound]	3.9 ± 3.1
K5[SiVW11O40] [PM-43]	1.6
K7[BVW11O40] [PM-47]	29
K11H[(VO)3(SbW9O33)2]27H2O [PM-1002]	0.75 ± 0.05
[Et2NH2]7[PTi2W10O40] [PM-518]	26.5
[Pri2NH2]5[PTiW11O40] [PM-520]	0.74 ± 0.6

System: FluV A
Details: read-out: EC50, FluV A; MTT method; cited from earlier work

Compound	EC50 [µM]
NC(=O)c1ncn([C@@H]2O[C@H](CO)[C@@H](O)[C@H]2O)n1 [Ribavirin, reference compound]	5 ± 2.8
K5[SiVW11O40] [PM-43]	8.4 ± 6.5
K7[BVW11O40] [PM-47]	11.5 ± 0.6
K11H[(VO)3(SbW9O33)2]27H2O [PM-1002]	4 ± 1.7
[Et2NH2]7[PTi2W10O40] [PM-518]	62 ± 27
[Pri2NH2]5[PTiW11O40] [PM-520]	45 ± 26

System: HIV-1
Details: read-out: EC50, HIV-1; MTT method; cited from earlier work

Compound	EC50 [µM]
K5[SiVW11O40] [PM-43]	0.3 ± 0.12
K7[BVW11O40] [PM-47]	0.03 ± 0.01
K11H[(VO)3(SbW9O33)2]27H2O [PM-1002]	0.03 ± 0.01
[Et2NH2]7[PTi2W10O40] [PM-518]	2 ± 0.8
[Pri2NH2]5[PTiW11O40] [PM-520]	2 ± 0.5

System: Vero
Details: read-out: IC50, cytotoxicity Vero; MTT method; cited from earlier work

Compound	IC50 [µM]
NC(=O)c1ncn([C@@H]2O[C@H](CO)[C@@H](O)[C@H]2O)n1 [Ribavirin, reference compound]	100
K12Nb6P2W12O62 [HS-158]	> 200
[(Me3NH)8Si2W18Nb6O77]nH2O [HS-106]	148
[Na16Fe4(H2O)2(P2W15O56)2]nH2O [HS-054]	50

System: HMV-2
Details: read-out: IC50, cytotoxicity HMV-2; MTT method; cited from earlier work

Compound	IC50 [µM]
NC(=O)c1ncn([C@@H]2O[C@H](CO)[C@@H](O)[C@H]2O)n1 [Ribavirin, reference compound]	> 100
K12Nb6P2W12O62 [HS-158]	53.7
[(Me3NH)8Si2W18Nb6O77]nH2O [HS-106]	20.7
[Na16Fe4(H2O)2(P2W15O56)2]nH2O [HS-054]	> 200

System: SARS-V
Assay type: cell-based, SARS coronavirus
Details: read-out: EC50, SARS-V

Compound	EC50 [µM]
K11H[(VO)3(SbW9O33)2]27H2O [PM-1002]	0.25 ± 0.07
[Et2NH2]7[PTi2W10O40] [PM-518]	> 50
[NH4]12H(BiW9O33)3Bi6(OH)3(H2O)3V4H10]25H2O [PM-1210]	0.76 ± 0.3
[Pri2NH2]5[PTiW11O40] [PM-520]	4.9 ± 1.4

System: MDCK cells
Details: single compound at 100 μM; untreated cells = 100%; cited from earlier work

Compound	Percent viability of cells [%]
NC(=O)c1ncn([C@@H]2O[C@H](CO)[C@@H](O)[C@H]2O)n1 [Ribavirin, reference compound]	107.2 ± 1.7

Same assay, conditions: single compound at 200 μM; cited from earlier work

Compound	Percent viability of cells [%]
NC(=O)c1ncn([C@@H]2O[C@H](CO)[C@@H](O)[C@H]2O)n1 [Ribavirin, reference compound]	104.8 ± 3.8

Same assay, conditions: single compound at 400 μM; cited from earlier work

Compound	Percent viability of cells [%]
NC(=O)c1ncn([C@@H]2O[C@H](CO)[C@@H](O)[C@H]2O)n1 [Ribavirin, reference compound]	102.8 ± 4.1

System: HEp-2
Details: read-out: IC50, cytotoxicity HEp-2; MTT method; cited from earlier work

Compound	IC50 [µM]
NC(=O)c1ncn([C@@H]2O[C@H](CO)[C@@H](O)[C@H]2O)n1 [Ribavirin, reference compound]	52.7
K12Nb6P2W12O62 [HS-158]	82.7
[(Me3NH)8Si2W18Nb6O77]nH2O [HS-106]	> 200
[Na16Fe4(H2O)2(P2W15O56)2]nH2O [HS-054]	88

System: DFV
Details: read-out: EC50, DFV; MTT method; cited from earlier work

Compound	EC50 [µM]
NC(=O)c1ncn([C@@H]2O[C@H](CO)[C@@H](O)[C@H]2O)n1 [Ribavirin, reference compound]	> 100
K5[SiVW11O40] [PM-43]	10.7 ± 6.7
K7[BVW11O40] [PM-47]	10.5 ± 6.9
K11H[(VO)3(SbW9O33)2]27H2O [PM-1002]	2 ± 1.4
[Et2NH2]7[PTi2W10O40] [PM-518]	36.8 ± 3
[Pri2NH2]5[PTiW11O40] [PM-520]	11.7 ± 7.1

System: FluV A (H1N1/PR8)
Details: 40 mM ribavirin alone; data not shown; cited from earlier work

Compound	appearance of lungs of infected mice
NC(=O)c1ncn([C@@H]2O[C@H](CO)[C@@H](O)[C@H]2O)n1 [Ribavirin, reference compound]	swollen and reddened due to congestion

Same assay, conditions: 80 mM ribavirin aerosol every 12 hours for 4 days; cited from earlier work

Compound	mice survived on the 9th day [%]
NC(=O)c1ncn([C@@H]2O[C@H](CO)[C@@H](O)[C@H]2O)n1 [Ribavirin, reference compound]	60

Same assay, conditions: 80 mM ribavirin alone; cited from earlier work

Compound	survival at 14 days after the infection [%]
NC(=O)c1ncn([C@@H]2O[C@H](CO)[C@@H](O)[C@H]2O)n1 [Ribavirin, reference compound]	30

System: CDV
Details: cited from earlier work

Compound	antiviral activity against CDV
[Et2NH2]7[PTi2W10O40] [PM-518]	did not have antiviral activities

Same assay, conditions: read-out: EC50, CDV; plaque reduction method; cited from earlier work

Compound	EC50 [µM]
NC(=O)c1ncn([C@@H]2O[C@H](CO)[C@@H](O)[C@H]2O)n1 [Ribavirin, reference compound]	74 ± 35
K5[SiVW11O40] [PM-43]	7.5 ± 1
K7[BVW11O40] [PM-47]	6 ± 0.6
K11H[(VO)3(SbW9O33)2]27H2O [PM-1002]	2.8 ± 1
[Et2NH2]7[PTi2W10O40] [PM-518]	> 50
[Pri2NH2]5[PTiW11O40] [PM-520]	7.4 ± 0.4

System: ortho- and paramyxoviruses, herpesviruses and retroviruses (HIV-1 and 2)
Details: cited from earlier work

Compound	antiviral activity
[(Me3NH)8Si2W18Nb6O77]nH2O [HS-106]	broad spectrum antiviral activity

System: RSV
Details: cited from earlier work

Compound	anti-RSV activity
[(Me3NH)8Si2W18Nb6O77]nH2O [HS-106]	most potent and selective anti-RSV activity

System: MDCK
Details: read-out: IC50, cytotoxicity MDCK; MTT method; cited from earlier work

Compound	IC50 [µM]
NC(=O)c1ncn([C@@H]2O[C@H](CO)[C@@H](O)[C@H]2O)n1 [Ribavirin, reference compound]	> 200
K12Nb6P2W12O62 [HS-158]	164
[(Me3NH)8Si2W18Nb6O77]nH2O [HS-106]	> 200
[Na16Fe4(H2O)2(P2W15O56)2]nH2O [HS-054]	> 200

System: TGEV
Assay type: cell-based, transmissible gastroenteritis virus of swine
Details: read-out: EC50, TGEV

Compound	EC50 [µM]
K11H[(VO)3(SbW9O33)2]27H2O [PM-1002]	0.6 ± 0.4
[Et2NH2]7[PTi2W10O40] [PM-518]	2.1 ± 1.1
[NH4]12H(BiW9O33)3Bi6(OH)3(H2O)3V4H10]25H2O [PM-1210]	1.6 ± 1.1
[Pri2NH2]5[PTiW11O40] [PM-520]	1.4 ± 1.3
